Experimental data from patent US11691968B2, “Compound having KDM5 inhibitory activity and pharmaceutical use thereof” (ONO PHARMACEUTICAL CO., LTD., priority 2020, dated 2023).

Key:
[1] = Metabolic Stability in Human Liver Microsomes; format: in vitro ADME
Experimental: Metabolic Stability in Human Liver Microsomes
Human liver microsome (BD Gentest Corporation, Cat No. #452161) incubations were conducted in duplicate in 96-well plates. Each well contains 40 μL of 0.1 M potassium phosphate buffer (pH 7.4), 4.125 mM MgCl2, 0.625 mg/mL liver microsomes, and test compound (1.25 μM). After 5-min preincubation at 37° C., 10 uL of 5.0 mM NADPH in 0.1M potassium phosphate buffer was added to initiate the enzymatic reaction. The final component concentrations are 0.1M potassium phosphate buffer (pH 7.4), 1.0 mM NADPH, 3.3 mM MgCl2, 0.5 mg/mL liver microsomes, and test compound (1.0 μM). Reactions were terminated at 0 and 60 min by adding 200 μL of ice-cold acetonitrile containing internal standard.
LC-MS/MS analysis was conducted as specified below.
The remaining at 60 min (%) of test compound was calculated from the peak area ratio (test compound/internal standard) of samples collected 0 and 60 min after the start of the reaction according to the formula described below. Remaining at 60 min (%)=peak area ratio of sample collected at 60 min/peak area ratio of sample collected at 0 min×100 [Results]

KDM5A = KDM5A (Homo sapiens (Human), UniProt P29375); assay: Biochemical KDM5A Inhibition Assay (HTRF); details: KDM5A protein, biotin-labelled H3K4-Me3 substrate
Experimental: Biochemical KDM5A Inhibition Assay
Using 384-well white Greiner784075 (Greiner), representative compounds were characterized for their inhibition of KDM5A using HTRF® technology (Cisbio Bioassays). Briefly, the test compounds, reference compounds, and DMSO control (typical compound concentration range 1 μM-[…], final assay concentration (FAC*) of DMSO 0.5%) were added to 384-well plate by the Echo® acoustic dispensing platform (Labcyte). Five (5) 1l of KDM5A protein (produced by the method described in Nat Chem Biol 12, 531-538 (2016)). (5-20 nM FAC*) in assay buffer (50 mM MES, 50 mM NaCl, 1 mM TCEP, 0.01% v/v Tween 20, 0.03% BSA, pH 6.5) was added to wells and plates were incubated for 10-20 minutes at 25 degrees celsius. Then, 5 μl of alpha-ketoglutaric acid (100 μM FAC*), biotin-labelled H3K4-Me3 substrate (Anaspec Cat #AS-64357-1; 200 nM FAC*), Fe(II)SO4 (100 μM FAC*) and ascorbic acid (2 mM FAC*) in assay buffer was added to wells and plates were incubated for 20 minutes at room temperature. The reaction was stopped with the addition of 10 μl of anti-H3K4-Me2-Eu(K) (Cisbio Bioassays Cat #61KA2KAH; 0.75 nM FAC**)+Streptavidin XL665 (Cisbio Bioassays Cat #610SAXLB; 25 nM FAC**) in HTRF detection buffer (Cisbio Bioassays Cat #62SDBRDF). The mixture was incubated for 30 minutes at room temperature before 340 nm excitation and measurement of dual emission at 620 nm and 665 run. *FAC: final assay concentration calculated based on 10 μl of the assay buffer**FAC: final assay concentration calculated based on 20 μl of the detection buffer
The raw data (a 665 nm and a 620 nm reading from each well) for individual assay plates were analyzed. The ratio of emissions was calculated using the following calculation: Ratio=(665 nm emission/620 nm emission)×10000. […] Compound IC50 values were calculated from graphs of % inhibition plotted against compound concentration, using a four parameter curve fit. [Results]

[2] = 0.5 mg/mL liver microsomes, 1.0 μM test compound, 1.0 mM NADPH, 37° C., 60 min

Sequence of KDM5A (P29375 whole entry): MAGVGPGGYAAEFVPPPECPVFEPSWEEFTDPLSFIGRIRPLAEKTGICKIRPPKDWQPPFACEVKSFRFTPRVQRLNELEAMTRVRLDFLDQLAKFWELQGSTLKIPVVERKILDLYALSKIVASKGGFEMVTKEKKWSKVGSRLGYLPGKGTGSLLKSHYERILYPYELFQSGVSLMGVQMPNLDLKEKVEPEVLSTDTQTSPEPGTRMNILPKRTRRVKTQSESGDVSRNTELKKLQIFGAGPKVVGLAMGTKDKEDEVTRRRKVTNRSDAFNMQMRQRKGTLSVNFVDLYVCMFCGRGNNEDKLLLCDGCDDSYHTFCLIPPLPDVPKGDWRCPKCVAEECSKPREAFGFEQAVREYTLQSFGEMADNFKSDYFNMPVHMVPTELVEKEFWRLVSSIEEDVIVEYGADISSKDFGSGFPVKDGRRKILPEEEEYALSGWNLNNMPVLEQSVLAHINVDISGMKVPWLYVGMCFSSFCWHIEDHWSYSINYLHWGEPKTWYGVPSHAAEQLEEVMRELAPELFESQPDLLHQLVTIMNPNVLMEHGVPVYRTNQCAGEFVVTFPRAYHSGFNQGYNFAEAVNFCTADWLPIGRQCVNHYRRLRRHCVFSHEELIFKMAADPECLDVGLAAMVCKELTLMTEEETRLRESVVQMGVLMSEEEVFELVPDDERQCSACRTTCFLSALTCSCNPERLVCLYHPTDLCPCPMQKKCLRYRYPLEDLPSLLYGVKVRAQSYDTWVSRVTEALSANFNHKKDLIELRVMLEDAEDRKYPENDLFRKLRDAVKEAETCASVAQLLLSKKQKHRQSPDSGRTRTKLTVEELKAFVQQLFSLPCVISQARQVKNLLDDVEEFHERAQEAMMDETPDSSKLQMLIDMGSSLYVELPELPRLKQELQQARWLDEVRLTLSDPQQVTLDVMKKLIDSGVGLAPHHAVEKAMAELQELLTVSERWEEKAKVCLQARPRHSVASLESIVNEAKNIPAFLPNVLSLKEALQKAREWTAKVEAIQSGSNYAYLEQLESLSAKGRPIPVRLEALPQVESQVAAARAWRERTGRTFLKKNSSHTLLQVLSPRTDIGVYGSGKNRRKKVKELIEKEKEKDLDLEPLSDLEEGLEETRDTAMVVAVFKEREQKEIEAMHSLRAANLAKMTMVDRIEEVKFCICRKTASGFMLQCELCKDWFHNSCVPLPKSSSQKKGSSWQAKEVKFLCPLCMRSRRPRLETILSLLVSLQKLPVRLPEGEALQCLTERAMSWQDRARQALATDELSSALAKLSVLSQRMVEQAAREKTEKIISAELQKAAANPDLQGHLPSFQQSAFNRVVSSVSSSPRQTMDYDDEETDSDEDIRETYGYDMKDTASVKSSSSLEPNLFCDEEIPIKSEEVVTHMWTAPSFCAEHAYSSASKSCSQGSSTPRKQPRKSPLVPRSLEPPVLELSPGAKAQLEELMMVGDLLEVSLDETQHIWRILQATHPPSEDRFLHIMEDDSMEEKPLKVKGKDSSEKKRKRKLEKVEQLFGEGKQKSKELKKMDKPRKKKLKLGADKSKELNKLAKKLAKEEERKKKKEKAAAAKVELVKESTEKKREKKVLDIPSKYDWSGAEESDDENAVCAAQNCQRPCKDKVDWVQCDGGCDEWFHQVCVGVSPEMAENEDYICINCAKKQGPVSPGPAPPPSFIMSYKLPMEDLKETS

Compound	Metabolic stability in human liver microsomes (% remaining at 60 min) ([1]; human, microsomes, 1 h) [%]	IC50 (KDM5A) [nM]	Metabolic stability in human liver microsomes (% remaining at 60 min) [1, 2] [%]
CC(n1cnc(C(=O)N2C[C@@H]3C(C4=NOC(C)(C)C4)[C@@H]3C2)c1)C(F)(F)F (stereo partly drawn) [Example 9, [(1R,5S,6r)-6-(5,5-dimethyl-4,5-dihydro-1,2-oxazol-3-yl)-3-azabicyclo[3.1.0]hex-3-yl][1-(1,1,1-trifluoropropan-2-yl)-1H-imidazol-4-yl]methanone]	93	400	–
C[C@@H](c1ccccc1C#N)n1cnc(C(=O)N2C[C@@H]3[C@H](C2)[C@H]3C2=NOC(C)(C)C2)c1 [Example 22, 2-[(1S)-1-(4-{[(1R,5S,6S)-6-(5,5-dimethyl-4,5-dihydro-1,2-oxazol-3-yl)-3-azabicyclo[3.1.0]hex-3-yl]carbonyl}-1H-imidazol-1-yl)ethyl]benzonitrile]	–	400	–
C[C@@H](c1ccc(C#N)cc1)n1cnc(C(=O)N2C[C@@H]3[C@H](C2)[C@H]3C2=NOC(C)(C)C2)c1 [Example 24, 4-[(1S)-1-(4-{[(1R,5S,6S)-6-(5,5-dimethyl-4,5-dihydro-1,2-oxazol-3-yl)-3-azabicyclo[3.1.0]hex-3-yl]carbonyl}-1H-imidazol-1-yl)ethyl]benzonitrile]	101	200	–
C[C@@H](c1nccs1)n1cnc(C(=O)N2C[C@@H]3[C@H](C2)[C@H]3C2=NOC(C)(C)C2)c1 [Example 27, [(1R,5S,6S)-6-(5,5-dimethyl-4,5-dihydro-1,2-oxazol-3-yl)-3-azabicyclo[3.1.0]hex-3-yl]{1-[(1S)-1-(1,3-thiazol-2-yl)ethyl]-1H-imidazol-4-yl}methanone]	97	1000	–
CC(C)n1cnc(C(=O)N2C[C@@H]3C(C4=NOC(C)(C(F)F)C4)[C@@H]3C2)c1 (stereo partly drawn) [Example 40, {(1R,5S,6r)-6-[5-(difluoromethyl)-5-methyl-4,5-dihydro-1,2-oxazol-3-yl]-3-azabicyclo[3.1.0]hex-3-yl}(1-isopropyl-1H-imidazol-4-yl)methanone]	–	200	103
Cc1onc([C@H]2[C@@H]3CN(C(=O)c4cn(C(C)C)cn4)C[C@@H]32)c1-c1ccccc1 [Example 55, (1-isopropyl-1H-imidazol-4-yl)[(1R,5S,6r)-6-(5-methyl-4-phenyl-1,2-oxazol-3-yl)-3-azabicyclo[3.1.0]hex-3-yl]methanone]	–	20	–
Cc1cc([C@H]2[C@@H]3CN(C(=O)c4cn(C(C)C)cn4)C[C@@H]32)no1 [Example 56, (1-isopropyl-1H-imidazol-4-yl)[(1R,5S,6r)-6-(5-methyl-1,2-oxazol-3-yl)-3-azabicyclo[3.1.0]hex-3-yl]methanone]	–	200	–
CC(C)n1cnc(C(=O)N2C[C@@H]3[C@H](C2)[C@H]3C2=NOC(C)(C)N2C)c1 [Example 59, (1-isopropyl-1H-imidazol-4-yl)[(1R,5S,6r)-6-(4,5,5-trimethyl-4,5-dihydro-1,2,4-oxadiazol-3-yl)-3-azabicyclo[3.1.0]hex-3-yl]methanone]	100	20	–
CCN1C([C@H]2[C@@H]3CN(C(=O)c4cn(C(C)C)cn4)C[C@@H]32)=NOC1(C)C [Example 60, [(1R,5S,6r)-6-(4-ethyl-5,5-dimethyl-4,5-dihydro-1,2,4-oxadiazol-3-yl)-3-azabicyclo[3.1.0]hex-3-yl](1-isopropyl-1H-imidazol-4-yl)methanone]	102	200	–
CC(C)n1cnc(C(=O)N2C[C@@H]3[C@H](C2)[C@H]3c2nnn3ccccc23)c1 [Example 62, (1-isopropyl-1H-imidazol-4-yl)[(1R,5S,6r)-6-([1,2,3]triazolo[1,5-a]pyridin-3-yl)-3-azabicyclo[3.1.0]hex-3-yl]methanone]	83	10	–
CC(C)n1cnc(C(=O)N2C[C@@H]3[C@H](C2)[C@H]3c2nnn[nH]2)c1 [Example 63, (1-isopropyl-1H-imidazol-4-yl)[(1R,5S,6r)-6-(1H-tetrazol-5-yl)-3-azabicyclo[3.1.0]hex-3-yl]methanone]	–	10	–
CC(C)n1cnc(C(=O)N2C[C@@H]3[C@H](C2)[C@H]3C(=O)NC(C)(C)C)c1 [Example 65, (1R,5S,6r)-N-tert-butyl-3-[1-(propan-2-yl)-1H-imidazole-4-carbonyl]-3-azabicyclo[3.1.0]hexane-6-carboxamide]	–	20	93
CC(C)n1cnc(C(=O)N2C[C@@H]3[C@H](C2)[C@H]3C(=O)N(C)C(C)(C)C)c1 [Example 66, (1R,5S,6r)-N-tert-butyl-N-methyl-3-[1-(propan-2-yl)-1H-imidazole-4-carbonyl]-3-azabicyclo[3.1.0]hexane-6-carboxamide]	–	30	89
CC(C)n1cnc(C(=O)N2C[C@@H]3[C@H](C2)[C@H]3C(=O)N(C)C2(C#N)CC2)c1 [Example 69, (1R,5S,6r)-N-(1-cyanocyclopropyl)-N-methyl-3-[1-(propan-2-yl)-1H-imidazole-4-carbonyl]-3-azabicyclo[3.1.0]hexane-6-carboxamide]	–	200	89
CC(C)n1cnc(C(=O)N2C[C@@H]3[C@H](C2)[C@H]3C(=O)c2cccs2)c1 [Example 76, (1-isopropyl-1H-imidazol-4-yl)[(1R,5S,6r)-6-(2-thienylcarbonyl)-3-azabicyclo[3.1.0]hex-3-yl]methanone]	–	60	–
Cc1csc(C(=O)[C@H]2[C@@H]3CN(C(=O)c4cn(C(C)C)cn4)C[C@@H]32)c1 [Example 77, (1-isopropyl-1H-imidazol-4-yl){(1R,5S,6r)-6-[(4-methyl-2-thienyl)carbonyl]-3-azabicyclo[3.1.0]hex-3-yl}methanone]	–	20	–
Cc1cc([C@H]2[C@@H]3CN(C(=O)c4cc(C(C)C)[nH]n4)C[C@@H]32)no1 [Example 103, (5-isopropyl-1H-pyrazol-3-yl)[(1R,5S,6r)-6-(5-methyl-1,2-oxazol-3-yl)-3-azabicyclo[3.1.0]hex-3-yl]methanone]	–	200	–
Cc1c([C@H]2[C@@H]3CN(C(=O)c4cc(C(C)C)[nH]n4)C[C@@H]32)noc1C(F)F [Example 104, {(1R,5S,6r)-6-[5-(difluoromethyl)-4-methyl-1,2-oxazol-3-yl]-3-azabicyclo[3.1.0]hex-3-yl}(5-isopropyl-1H-pyrazol-3-yl)methanone]	–	40	–
Cc1onc([C@H]2[C@@H]3CN(C(=O)c4cc(C(C)C)[nH]n4)C[C@@H]32)c1-c1ccccn1 [Example 106, (5-isopropyl-1H-pyrazol-3-yl){(1R,5S,6r)-6-[5-methyl-4-(2-pyridinyl)-1,2-oxazol-3-yl]-3-azabicyclo[3.1.0]hex-3-yl}methanone]	–	40	–
CC(C)c1cc(C(=O)N2C[C@@H]3[C@H](C2)[C@H]3c2nnn3ccccc23)n[nH]1 [Example 132, (5-isopropyl-1H-pyrazol-3-yl)[(1R,5S,6r)-6-([1,2,3]triazolo[1,5-a]pyridin-3-yl)-3-azabicyclo[3.1.0]hex-3-yl]methanone]	–	40	–
CC(C)c1cc(C(=O)N2C[C@@H]3[C@H](C2)[C@H]3c2nnn[nH]2)n[nH]1 [Example 134, (5-isopropyl-1H-pyrazol-3-yl)[(1R,5S,6r)-6-(1H-tetrazol-5-yl)-3-azabicyclo[3.1.0]hex-3-yl]methanone]	–	4	–
CC(C)c1cc(C(=O)N2C[C@@H]3[C@H](C2)[C@H]3C(=O)N(C)C2(C)CC2)n[nH]1 [Example 138, (1R,5S,6r)-N-methyl-N-(1-methylcyclopropyl)-3-[5-(propan-2-yl)-1H-pyrazole-3-carbonyl]-3-azabicyclo[3.1.0]hexane-6-carboxamide]	–	800	–
